Where a SMILES comes first, the peptide text is derived from it. Bridges are numbered along the chain shown (N, C = ends). [ ]: non-standard residue; d: D form. The star is where a group is joined. hPhe(3-Cl-4-CF3) = N[C@@H](CCc1ccc(C(F)(F)F)c(Cl)c1)C(=O)O; NPrPhe(4-CF3) = CCCN[C@@H](Cc1ccc(C(F)(F)F)cc1)C(=O)O; NMeGly(cPent) = CN[C@H](C(=O)O)C1CCCC1; Pro(4,4-F2) = O=C(O)[C@@H]1CC(F)(F)CN1; Hyp = O=C(O)[C@@H]1C[C@@H](O)CN1; NMeL = CN[C@@H](CC(C)C)C(=O)O; Morpholide = C1CN(*)CCO1; Ac5c = NC1(C(=O)O)CCCC1; Ac4c = NC1(C(=O)O)CCC1; NEtG = CCNCC(=O)O; Sar = CNCC(=O)O

The values that follow come from patent EP4603105A1, “PHARMACEUTICAL COMPOSITION CONTAINING CYCLIC COMPOUND HAVING SELECTIVE KRAS INHIBITORY EFFECT AGAINST HRAS AND NRAS” (CHUGAI SEIYAKU KABUSHIKI KAISHA, priority 2022, dated 2024).

The target of experiment [1] is GDP-bound NRAS wild-type protein (Homo sapiens, UniProt P01111). Description: Binding to NRAS by surface plasmon resonance (SPR), KD and KD ratio to KRAS. The note with it: ratio of KD for GDP-bound NRAS wild-type protein to KD for KRAS. A digest of the protocol:
(§1)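 GDP-bound biotin-Avi RAS captured at ~100–300 RU, 30°C, pH 7.4 HBS containing 10 µM GDP, 10 mM MgCl2, 1 mM DTT, 0.01% Tween 20 and 4% DMSO. KD by 1:1 fitting.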
(In general: SPR reads the build-up and loss of mass on a sensor chip optically.)

For a further experiment, the target named is HRAS wild-type protein (Homo sapiens, UniProt P01112). In words: Binding to HRAS by surface plasmon resonance (SPR), KD and KD ratio to KRAS. The note with it: ratio of KD for HRAS wild-type protein to KD for KRAS. The method in brief:
as §1

Experiment [2] has as its system human lung cancer strain NCI-H441. The format is cell-based. The method in brief:
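Readout: […] after the ATP-based reagent. Compound: serial dilutions in dimethyl sulfoxide.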

GDP-bound NRAS wild-type protein, sequence (P01111 whole entry): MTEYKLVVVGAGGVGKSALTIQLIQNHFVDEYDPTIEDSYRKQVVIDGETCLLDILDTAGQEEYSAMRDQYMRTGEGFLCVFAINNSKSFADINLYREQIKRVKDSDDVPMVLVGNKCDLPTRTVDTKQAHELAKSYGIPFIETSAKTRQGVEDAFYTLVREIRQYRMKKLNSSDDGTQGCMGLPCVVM
HRAS wild-type protein, sequence (P01112 whole entry): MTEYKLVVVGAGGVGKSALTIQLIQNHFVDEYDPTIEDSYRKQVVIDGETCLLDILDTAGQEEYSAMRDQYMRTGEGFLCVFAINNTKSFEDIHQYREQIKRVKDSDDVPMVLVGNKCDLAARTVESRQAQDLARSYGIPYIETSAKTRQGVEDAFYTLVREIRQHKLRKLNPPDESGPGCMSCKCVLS

A word on the IC50: it is the concentration that gives 50% inhibition. Higher therefore signals weaker potency in that assay. For `CCCN1C(=O)CN(C)C(=O)CN(CC)C(=O)[C@H]([C@@H](C)CC)NC(=O)[C@H](CC(C)C)N(C)C(=O)C[C@@H](C(=O)N2CCOCC2)NC(=O)[C@H](C2CCCC2)N(C)C(=O)C2(CCC2)NC(=O)[C@@H]2CCCN2C(=O)[C@H](CCc2ccc(C(F)(F)F)c(Cl)c2)NC(=O)CN(C)C(=O)[C@@H]1Cc1ccc(C(F)(F)F)cc1` [PP0332] ([NMeL]I[NEtG][Sar][NPrPhe(4-CF3)][Sar][hPhe(3-Cl-4-CF3)]P[Ac4c][NMeGly(cPent)]D-Morpholide; lactam N-11), the “NRAS /KRAS” value in experiment [1] was “B (a compound having 3 or more and less than 10 is denoted as B)”. For the same compound, the “HRAS /KRAS” value at HRAS wild-type protein was “B (a compound having 3 or more and less than 10 is denoted as B)”. For the same compound, in experiment [2], half-maximal inhibition (IC50) required 167 nM.
Turning to `CCCN1C(=O)CN(C)C(=O)CN(CC)C(=O)[C@H]([C@@H](C)CC)NC(=O)[C@H](CC(C)C)N(C)C(=O)C[C@@H](C(=O)N2CCOCC2)NC(=O)[C@H](C2CCCC2)N(C)C(=O)C2(CCCC2)NC(=O)[C@@H]2CC(F)(F)CN2C(=O)[C@H](CCc2ccc(C(F)(F)F)c(Cl)c2)NC(=O)CN(C)C(=O)[C@@H]1Cc1ccc(C(F)(F)F)cc1` [PP0333] ([NMeL]I[NEtG][Sar][NPrPhe(4-CF3)][Sar][hPhe(3-Cl-4-CF3)][Pro(4,4-F2)][Ac5c][NMeGly(cPent)]D-Morpholide; lactam N-11), in experiment [1], the “NRAS /KRAS” value is “B (a compound having 3 or more and less than 10 is denoted as B)”. Also, the “HRAS /KRAS” value on HRAS wild-type protein was “C (A compound having a KD ratio of 0.1 or more and less than 3 is denoted as C)”. Moreover, in experiment [2], the IC50 came to 41.6 nM.
For the compound `CCCN1C(=O)CN(C)C(=O)CN(CC)C(=O)[C@H]([C@@H](C)CC)NC(=O)[C@H](CC(C)C)N(C)C(=O)C[C@@H](C(=O)N2CCOCC2)NC(=O)[C@H](C2CCCC2)N(C)C(=O)C2(CCC2)NC(=O)[C@@H]2CC(F)(F)CN2C(=O)[C@H](CCc2ccc(C(F)(F)F)c(Cl)c2)NC(=O)CN(C)C(=O)[C@@H]1Cc1ccc(C(F)(F)F)cc1` [PP0334] ([NMeL]I[NEtG][Sar][NPrPhe(4-CF3)][Sar][hPhe(3-Cl-4-CF3)][Pro(4,4-F2)][Ac4c][NMeGly(cPent)]D-Morpholide; lactam N-11), the “NRAS /KRAS” value in experiment [1] is “B (a compound having 3 or more and less than 10 is denoted as B)”. Besides, the “HRAS /KRAS” value on HRAS wild-type protein is “C (A compound having a KD ratio of 0.1 or more and less than 3 is denoted as C)”. In experiment [2], this compound displayed a 50% inhibitory concentration (IC50) of 130 nM.
For the compound `CCCN1C(=O)CN(C)C(=O)CN(CC)C(=O)[C@H]([C@@H](C)CC)NC(=O)[C@H](CC(C)C)N(C)C(=O)C[C@@H](C(=O)N2CCOCC2)NC(=O)[C@H](C2CCCC2)N(C)C(=O)C2(CCCC2)NC(=O)[C@@H]2C[C@@H](OCC)CN2C(=O)[C@H](CCc2ccc(C(F)(F)F)c(Cl)c2)NC(=O)CN(C)C(=O)[C@@H]1Cc1ccc(C(F)(F)F)cc1` [PP0335] ([NMeL]I[NEtG][Sar][NPrPhe(4-CF3)][Sar][hPhe(3-Cl-4-CF3)][Hyp](Et)[Ac5c][NMeGly(cPent)]D-Morpholide; lactam N-11), the “NRAS /KRAS” value in experiment [1] was “B (a compound having 3 or more and less than 10 is denoted as B)”. Further, the “HRAS /KRAS” value on HRAS wild-type protein is “C (A compound having a KD ratio of 0.1 or more and less than 3 is denoted as C)”. In experiment [2], this compound registered an IC50 of 41.7 nM.
As to `CCCN1C(=O)CN(C)C(=O)CN(CC)C(=O)[C@H]([C@@H](C)CC)NC(=O)[C@H](CC(C)C)N(C)C(=O)C[C@@H](C(=O)N2CCOCC2)NC(=O)[C@H](C2CCCC2)N(C)C(=O)C2(CCC2)NC(=O)[C@@H]2C[C@@H](OCC)CN2C(=O)[C@H](CCc2ccc(C(F)(F)F)c(Cl)c2)NC(=O)CN(C)C(=O)[C@@H]1Cc1ccc(C(F)(F)F)cc1` [PP0336] ([NMeL]I[NEtG][Sar][NPrPhe(4-CF3)][Sar][hPhe(3-Cl-4-CF3)][Hyp](Et)[Ac4c][NMeGly(cPent)]D-Morpholide; lactam N-11), the “NRAS /KRAS” value in experiment [1] is “B (a compound having 3 or more and less than 10 is denoted as B)”. Also, at HRAS wild-type protein, the “HRAS /KRAS” value is “B (a compound having 3 or more and less than 10 is denoted as B)”. For the same compound, half-maximal inhibition in experiment [2] (IC50) required 73.2 nM.
